Source: US20220054477A1, “INDUCTION OF SUSTAINED LOCAL INFLAMMATION” (Ascendis Pharma Oncology Division A/S, priority 2019, published 2022)
Marks after values point to notes of the source that are not given here.

Key:
[1] = system: Ly-6C+ MHCII+ antigen presenting cells; test: Flow cytometry of tumor draining lymph nodes: frequency of IA-IE (MHCII)+ antigen presenting cells of Ly-6C+ antigen presenting cells (Example 15); type: in vivo, BALB/C mice; settings: 7 days after randomization
Procedure: (§1) Hydrogels were administered as suspension in PTP buffer. Some cohorts were further treated with 20 μg human IL-2 (Peprotech, Rocky Hill, N.J.), intraperitoneally (I.P.), twice a day for 5 days. Mice were sacrificed 7 days after randomization (D0). Following sacrifice, tumor draining lymph nodes were isolated from both flanks and were dissociated mechanically to generate a single cell suspension at a cell concentration of 1×10^6 cells per sample. Cell suspensions were centrifuged at 300 g for 5 minutes. Supernatants were discarded and cells were resuspended in FACS buffer with 1 μg/ml Fc-Block and incubated at 4° C. for 10 minutes in the dark. Surface marker antibody mixtures (antibody concentration: 10 μg/mL) in FACS buffer were added to each sample and samples were incubated in the dark at 4° C. for 30 minutes. Cells were centrifuged at 300 g for 5 minutes and supernatants were discarded. Cells were washed and then resuspended with FACS buffer before cytometer collection.
(§2) After collection, FACS data was analyzed using FlowJo Version 10.6.1. Compensation was digitally adjusted using single antibody-stained beads. Samples with less than 90% viability, as determined by LiveDead cell staining, were excluded from the analysis. […]

CCL2/MCP-1 = test: In vivo cytokine induction, plasma cytokine levels: CCL2/MCP-1 (Example 12); design: species or system BALB/C mice; settings: single intratumoral dose
Procedure: Mice were subcutaneously implanted with 3×10^5 CT26 tumor cells in the left and right flanks. […] Hydrogels were administered as suspensions in PBST buffer. K2 EDTA-preserved blood samples were collected by retro-orbital bleed at various time points following drug administration and plasma was isolated following centrifugation at 2000×g for 5 minutes at 4° C. and frozen. Plasma samples were stored at −80° C. Plasma was thawed and undiluted samples were assessed for cytokine levels using the 36-Plex Mouse ProcartaPlex™ Cytokine Panel 1A (ThermoFisher Scientific) following manufacturer's recommendations. Cytokines were measured on the Bio-Plex 200 (BioRad) following kit instructions. For sample values below or at the lower limit of quantitation (LLOQ) of the assay, a value of 0.01 pg/mL was instead used in determining mean cytokine concentrations.

[2] = system: Ly-6C+ antigen presenting cells; test: Flow cytometry of tumor draining lymph nodes: frequency of Ly-6C+ antigen presenting cells of non-T cells (Example 15); type: in vivo, BALB/C mice; settings: 7 days after randomization
Procedure: as §1, §2

Ccl3 = test: PBMC gene expression (qPCR, 6 hours post-treatment): Ccl3 (Example 17); type: in vivo, BALB/C mice
Procedure: Hydrogels were administered as suspensions in PTP buffer. […] Tumors were excised, weighed and snap frozen.
For PBMC isolations, approximately 600 μl of whole blood was collected via cardiac puncture. The collected whole blood from each individual mouse was diluted with a 1:1 ratio of pre-warmed PBS supplemented with 2% Fetal Bovine Serum (FBS). Then an equal volume of Histopaque-1083 was added to a new sterile 15 mL conical tube, where the diluted whole blood was layered over the Histopaque-1083. The mixture was then centrifuged at 400 g for 30 minutes. […]
Lysates from untreated control samples and 6 hour treated samples were thawed and RNA was isolated using the RNeasy Mini Kit (QIAGEN) following manufacturer's recommendations. […] RNA concentrations were measured using a NanoDrop (ThermoFisher) and then adjusted to […] with RNase-free water. RNA quality was assessed using a NanoDrop (ThermoFisher). […] 200 ng of cDNA was used for quantitative PCR using the RT^2 SYBR Green ROX qPCR Master mix (2×) kit (QIAGEN) following manufacturer's recommendations. […]
Cycle thresholds (CT) were collected using a 384-well platform ABI-7900H real-time qPCR system (Applied Biosystems). […] 2^ΔΔCT values were calculated with the following formula: […]
For each gene, 3 technical replicates were analyzed per biological replicate. Undetermined technical replicate CT values were recorded as zero ΔCT values. […]

Ly-6C+ CD8+ T cells = test: Flow cytometry of tumor draining lymph nodes: frequency of Ly-6C+ T cells of CD8+ T cells (Example 15); type: in vivo, BALB/C mice; settings: 7 days after randomization
Procedure: as §1, §2

Resiquimod [Compound 4]
Frequency of IA-IE (MHCII)+ antigen presenting cells of Ly-6C+ antigen presenting cells, Mean ([1]; injected right flank tumor): 69.63%
Frequency of IA-IE (MHCII)+ antigen presenting cells of Ly-6C+ antigen presenting cells, Mean ([1]; uninjected left flank tumor): 35.05%
CCL2/MCP-1 plasma level, Mean (CCL2/MCP-1; 1 h post-treatment): 357.83 pg/mL
CCL2/MCP-1 plasma level, Mean (CCL2/MCP-1; 3 h post-treatment): 4230.35†, ‡ pg/mL
CCL2/MCP-1 plasma level, Mean (CCL2/MCP-1; 6 h post-treatment): 1039.17†, ‡ pg/mL
CCL2/MCP-1 plasma level, Mean (CCL2/MCP-1; 10 h post-treatment): 847.07† pg/mL
CCL2/MCP-1 plasma level, Mean (CCL2/MCP-1; 24 h post-treatment): 92.58 pg/mL
Frequency of Ly-6C+ antigen presenting cells of non-T cells, Mean ([2]; injected right flank tumor): 2.5%
Frequency of Ly-6C+ antigen presenting cells of non-T cells, Mean ([2]; uninjected left flank tumor): 7.8%
Ccl3 Mean (2^ΔΔCT) (Ccl3): 1.43†
Ccl3 Fold change (4/13i) (Ccl3; ratio of 4 to 13i): 1.64
Frequency of Ly-6C+ T cells of CD8+ T cells, Mean (Ly-6C+ CD8+ T cells; injected right flank tumor): 53.7%
Frequency of Ly-6C+ T cells of CD8+ T cells, Mean (Ly-6C+ CD8+ T cells; uninjected left flank tumor): 48%
